For one data set, the system named is H1568. Put plainly: Cell viability, MTT assay, H1568. It is filed as cell-based. The procedure:
(§1) To measure cell viability, cell titer glow (CTG, Promega CellTiter-Glo 2.0 Assay) and MTT assays (SigmaAldrich, Cell Proliferation Kit I) were performed. Briefly, cells were serum starved overnight prior to seeding in 96-well plates. Following 24 h incubation, cells were treated with increasing concentrations of JGJ compounds for 96 hr. At assay read-out, CellTiter-Glo reagent was added and luminescence was measured after 10-minutes incubation at room temperature. For the MTT assay, MTT labeling reagent was added and incubated for 4 h. Subsequently, medium was removed and 50 μL DMSO was added to solubilize the crystals, and absorbance was measured at 570 nm. Cell viability was calculated as (Sample-Background)/(Control-Background). Current standard of care drugs, Enzalutamide, Palbociclib and Cetuximab were used as comparative controls.

Another data set addresses T1, CYP 2B6 (Homo sapiens, UniProt P20813).
T1 sequence (P20813 1-491): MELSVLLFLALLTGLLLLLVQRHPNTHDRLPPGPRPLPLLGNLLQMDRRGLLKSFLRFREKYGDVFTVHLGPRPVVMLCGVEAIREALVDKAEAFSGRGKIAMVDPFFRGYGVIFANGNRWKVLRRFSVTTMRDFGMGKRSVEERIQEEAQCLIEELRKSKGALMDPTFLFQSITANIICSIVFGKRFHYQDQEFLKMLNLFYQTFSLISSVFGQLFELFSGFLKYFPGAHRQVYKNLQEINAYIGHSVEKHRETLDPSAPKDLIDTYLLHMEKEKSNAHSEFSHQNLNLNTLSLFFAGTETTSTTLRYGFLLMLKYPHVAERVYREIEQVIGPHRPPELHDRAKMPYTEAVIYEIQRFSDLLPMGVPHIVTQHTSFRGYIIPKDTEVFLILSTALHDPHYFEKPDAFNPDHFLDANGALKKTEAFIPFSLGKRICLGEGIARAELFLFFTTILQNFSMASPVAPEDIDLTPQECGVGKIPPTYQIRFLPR
Description: CYP inhibition 2B6. It is filed as in vitro ADME. Details: unit not given here. As to conditions: Conc. 30 uM.

Another data set can be described thus: Caco2 permeability. The format is in vitro ADME. Conditions: human, Caco-2, Conc. 30 uM; for recovery at 30 uM: read-out: Caco2 Mean A-B % Recovery.
Data set [1] is described as follows: Microsomal stability, Human. Conditions: Conc. 30 uM; for CLint scaled at 30 uM / half-life at 30 uM: microsomes; for half-life at 30 uM: read-out: Microsomal stability T½. The format is in vitro ADME.
The next data set concerns the target T2, CYP 2C8 (Homo sapiens, UniProt P10632).
T2 sequence (P10632 1-490): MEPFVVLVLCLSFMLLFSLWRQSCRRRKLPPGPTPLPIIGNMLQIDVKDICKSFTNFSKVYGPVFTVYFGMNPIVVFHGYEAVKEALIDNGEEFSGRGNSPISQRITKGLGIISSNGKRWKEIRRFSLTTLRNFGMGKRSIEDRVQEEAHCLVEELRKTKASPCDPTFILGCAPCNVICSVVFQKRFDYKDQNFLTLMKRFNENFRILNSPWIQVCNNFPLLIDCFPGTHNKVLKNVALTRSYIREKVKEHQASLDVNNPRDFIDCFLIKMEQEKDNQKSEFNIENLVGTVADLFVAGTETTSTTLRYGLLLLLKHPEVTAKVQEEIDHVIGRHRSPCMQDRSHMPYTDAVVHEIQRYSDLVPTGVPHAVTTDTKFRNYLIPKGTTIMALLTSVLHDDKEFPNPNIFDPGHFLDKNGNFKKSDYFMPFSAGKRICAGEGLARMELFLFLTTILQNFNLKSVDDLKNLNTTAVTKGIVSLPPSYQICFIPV
Put plainly: CYP inhibition 2C8. It is filed as in vitro ADME. Details: unit not given here. Conditions: Conc. 30 uM.

Another data set concerns the target T3, PRPF31 (Homo sapiens, UniProt Q8WWY3).
T3 sequence (Q8WWY3 1-499): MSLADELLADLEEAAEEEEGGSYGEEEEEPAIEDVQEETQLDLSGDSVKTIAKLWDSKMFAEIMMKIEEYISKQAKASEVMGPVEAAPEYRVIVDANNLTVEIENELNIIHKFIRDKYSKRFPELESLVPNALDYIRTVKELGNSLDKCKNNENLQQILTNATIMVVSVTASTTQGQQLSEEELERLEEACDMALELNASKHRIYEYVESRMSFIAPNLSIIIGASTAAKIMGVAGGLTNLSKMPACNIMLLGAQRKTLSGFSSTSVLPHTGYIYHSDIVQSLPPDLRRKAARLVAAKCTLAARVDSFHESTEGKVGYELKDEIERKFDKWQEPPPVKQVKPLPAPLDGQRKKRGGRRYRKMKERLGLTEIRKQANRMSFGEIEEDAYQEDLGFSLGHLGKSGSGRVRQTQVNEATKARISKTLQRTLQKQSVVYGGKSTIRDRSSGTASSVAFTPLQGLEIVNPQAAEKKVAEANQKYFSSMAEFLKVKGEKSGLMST
Put plainly: MDA-MB-231 TNBC cell numbers with PRPF31 overexpression or silencing. It is filed as cell-based. The arrangement: mGFP (C); host or cells: MDA-MB-231 TNBC cells. As to conditions: 100 μM LN1632. From the text:
MDA-MB-231 TNBC cells were used to evaluate whether LN1632 targets PRPF31.

A further data set deals with AML pt #13 cells. Put plainly: Engraftment of ex vivo treated primary AML pt #13 cells in NSGS. Details: species or system NSGS mice. Conditions: ex vivo treatment 120 μM for 72 h, 12 weeks.
The next data set has as its system MYC-driven cancers. Description: Cell viability and cell counting assays in cancer cells. It is filed as cell-based. As to conditions: TNBC, CRPC, lung and colorectal adenocarcinoma cells. The procedure: To test whether LN1632 and novel analogs thereof affect cancer cell growth, cell viability and cell counting assays in TNBC (FIG. 14B-D), castration resistant prostate cancer cells (CRPC, FIG. 15A-C) and colorectal cancer cells (CRC, FIG. 15A-C) were performed.
as §1

The next data set deals with CD34+ AML pt. #13 cells. Put plainly: CFC assay, AML pt #13 CD34+ cells vs healthy CD34+ BM cells. The format is cell-based, human. As to conditions: AML pt #13 vs healthy donor CD34+ cells; 80-120 μM.
The next data set has as its target LIN28B protein (Homo sapiens, UniProt Q6ZN17). Description: Western blot of LIN28B protein levels in AML cells. Conditions: Kasumi-1 and THP-1; 1632 120-160 μM.

“Also recorded” adds a separate entry of the source.

Chain of LIN28B protein (Q6ZN17 whole entry): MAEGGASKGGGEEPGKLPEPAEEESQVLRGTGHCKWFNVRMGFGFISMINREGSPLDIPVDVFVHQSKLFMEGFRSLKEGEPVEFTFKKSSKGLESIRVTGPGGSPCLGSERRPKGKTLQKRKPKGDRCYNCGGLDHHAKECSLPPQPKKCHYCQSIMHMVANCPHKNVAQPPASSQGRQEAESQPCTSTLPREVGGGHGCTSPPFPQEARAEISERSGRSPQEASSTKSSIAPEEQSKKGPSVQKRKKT
Description for LIN28B protein: Thus, we subcutaneously (subQ) implanted THP-1 (high LIN28B) cells or MOLM-13 (no LIN28B) into NSG mice and 12 d later (tumor size=40 mm^2) started administration of 1632 IP at 100 mg/kg every other day.

In the data set with H1568 (NCI-H1568, H1568 (Lung)), `CC(=O)Nc1cccc(-c2ccc3ncc(C)n3n2)c1` [JGJ007, N-(3-(3-Methylimidazo[1,2-b]pyridazin-6-yl)phenyl)acetamide] returned an IC50 of 47 µM. For the same molecule, on CYP 2B6, the “CYP inhibition 2B6” value was found to be 45.39. In addition, in the data set “Caco2 permeability”, the Papp A→B at 30 uM turned out to be 36.2 ×10⁻⁶ cm/s, the Papp B→A at 30 uM stood at 30 ×10⁻⁶ cm/s, the efflux ratio at 30 uM is 0.829 and the recovery at 30 uM is 87%. For the same molecule, in data set [1], the “Microsomal stability % Remaining at T30” value is listed as “T30 = 72.8%”, the intrinsic metabolic clearance (CLint scaled) at 30 uM is 19 mL/min/kg and the half-life at 30 uM is 65.6 min. In addition, the “CYP inhibition 2C8” value on CYP 2C8 was determined as 19.11.
`Cc1cnc2ccc(-c3cccc(F)c3)nn12` [JGJ015, 6-(3-Fluorophenyl)-3-methylimidazo[1,2-b]pyridazine]: the “CYP inhibition 2B6” value on CYP 2B6 was 67.27. In the data set “Caco2 permeability”, the Papp A→B at 30 uM is 24.1 ×10⁻⁶ cm/s, the Papp B→A at 30 uM turned out to be 21.1 ×10⁻⁶ cm/s, the efflux ratio at 30 uM was found to be 0.874 and the recovery at 30 uM is 67.3%. Besides, in data set [1], the “Microsomal stability % Remaining at T30” value is on record as “T30 = 6.9%”, the CLint scaled at 30 uM turned out to be 161 mL/min/kg and the half-life at 30 uM turned out to be 7.76 min. In addition, at CYP 2C8, the “CYP inhibition 2C8” value turned out to be 17.82.
For the molecule `CC(=O)N(C)c1cccc(-c2ccc3nnc(C)n3n2)c1` [LN1632], on PRPF31, the “Anti-proliferative / pro-apoptotic effect under PRPF31 overexpression or shRNA silencing” value is recorded as “rescued anti-proliferative effects of LN1632; also recorded: abrogated pro-apoptotic effects of LN1632”. In the data set with H1568 (H1568 (Lung)), this molecule registered an IC50 of 128 µM. Further, in the data set with AML pt #13 cells, the “AML repopulation capability in vivo” value is “inhibited AML repopulation capability in vivo”. The “Proliferation and apoptosis of cancer cells” value in the data set with MYC-driven cancers is “reduced proliferation and induced apoptosis preferentially in MYC-driven cancers”. The “Colony formation (CFC)” value in the data set on CD34+ AML pt. #13 cells is given as “affects colony formation of CD34^+ AML pt. #13 cells significantly more than healthy CD34^+BM cells”. For the same molecule, the LIN28B protein levels entry on LIN28B protein is “inhibits LIN28B protein expression; also recorded: dose-dependently decreases LIN28B protein levels”.

Source of the values: patent publication US20230059009A1, “INHIBITORS OF LIN28 AND METHODS OF USE THEREOF” (The Regents of the University of California, priority 2019, published 2023).
